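The compound was tested at five concentrations on cells cultured in 96-well plates, with a 48-hour exposure period. TGI: concentration producing complete growth inhibition.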
What was measured:
Assay in all cases: DTP human tumour cell line panel, 48 h
SF-295 CNS = test system: SF-295 CNS
COLO 205 colon = test system: COLO 205 colon
TK-10 renal = test system: TK-10 renal
NCI-H522 lung = test system: NCI-H522 lung
RXF 393 renal = test system: RXF 393 renal
786-0 renal = test system: 786-0 renal
SF-268 CNS = test system: SF-268 CNS
A549 NSCLC = test system: A549 NSCLC
SK-OV-3 ovarian = test system: SK-OV-3 ovarian
HS 578T breast = test system: HS 578T breast
UACC-62 melanoma = test system: UACC-62 melanoma
NCI-H226 lung = test system: NCI-H226 lung
MOLT-4 leukemia = test system: MOLT-4 leukemia
M14 melanoma = test system: M14 melanoma
MDA-N = test system: MDA-N

SMILES	TGI (SF-295 CNS)	TGI (COLO 205 colon)	TGI (TK-10 renal)	TGI (NCI-H522 lung)	TGI (RXF 393 renal)	TGI (786-0 renal)	TGI (SF-268 CNS)	TGI (A549 NSCLC)	TGI (SK-OV-3 ovarian)	TGI (HS 578T breast)	TGI (UACC-62 melanoma)	TGI (NCI-H226 lung)	TGI (MOLT-4 leukemia)	TGI (M14 melanoma)	TGI (MDA-N)
CC1=C(C(=O)NCCc2ccccc2)CC(C(=O)NCCc2ccccc2)=C(C)N1	> 100 µM	> 100 µM	> 100 µM	> 100 µM	> 100 µM	> 100 µM	> 100 µM	> 100 µM	> 100 µM	> 100 µM	> 100 µM	> 100 µM	> 100 µM	> 100 µM	–
CC(=O)N(CCc1ccccc1)C(C#N)c1ccc(OCCCCCCCCCCOc2ccc(C(C#N)N(CCc3ccccc3)C(C)=O)cc2)cc1 (stereo not given)	51.6 µM	> 100 µM	> 100 µM	–	63.2 µM	50 µM	59.7 µM	> 100 µM	> 100 µM	56.1 µM	> 100 µM	66.9 µM	> 100 µM	> 100 µM	> 100 µM
COc1cc(C2C3=C(COC3=O)Oc3cc4c(cc32)OCO4)ccc1OC(C)=O (stereo not given)	–	0.602 µM	> 100 µM	–	> 100 µM	> 100 µM	> 59.5 µM	> 100 µM	0.909 µM	0.686 µM	> 100 µM	> 100 µM	98.7 µM	> 100 µM	–
CSc1nc(NC(=O)O)c(N(C(C)=O)C(=O)O)c(=O)n1C	> 100 µM	> 100 µM	–	–	> 100 µM	> 100 µM	> 100 µM	> 100 µM	–	–	> 100 µM	> 100 µM	> 100 µM	> 100 µM	–
CCOC(=O)C1C(c2ccc(OC)cc2)c2c([nH][nH]c2=O)CC1(O)OCC (stereo not given)	> 100 µM	> 100 µM	> 100 µM	> 100 µM	–	> 100 µM	> 100 µM	> 100 µM	–	> 100 µM	> 100 µM	–	> 100 µM	> 100 µM	> 100 µM
COc1cc(C=Nc2ccc(C(C)C)cc2)cc(OC)c1OC	> 100 µM	> 100 µM	> 100 µM	> 100 µM	> 100 µM	> 100 µM	> 100 µM	> 100 µM	> 100 µM	–	> 100 µM	> 100 µM	> 100 µM	> 100 µM	–
COc1ccc(C2=C(N)c3c(OC)cccc3C2=O)cc1	> 100 µM	> 100 µM	–	–	31.5 µM	> 100 µM	> 100 µM	–	> 100 µM	> 100 µM	> 100 µM	> 100 µM	> 100 µM	> 100 µM	> 100 µM
CC1(C)CCC[C@@]2(C)C1CC[C@H]1CC(O)C3(C)CCC12C3 (stereo not given in full)	–	–	28.7 µM	30.3 µM	26.1 µM	31.5 µM	40.9 µM	37.4 µM	36.3 µM	–	29.2 µM	34.3 µM	44.5 µM	31 µM	–
COc1cc(NCc2ccc3nc(OC)c(OC)nc3c2)cc(OC)c1OC	> 100 µM	> 100 µM	–	> 100 µM	> 100 µM	> 100 µM	> 100 µM	> 100 µM	> 100 µM	–	> 100 µM	> 100 µM	> 100 µM	> 100 µM	> 100 µM
CC(C)C1CCC/C=C/C=C/C=C/C=C/C(OC2OC(C)C(O)C(N)C2O)CC2OC(O)(CC(O)CC(O)C(O)CCC(=O)O1)CC(O)C2C(=O)O (stereo not given)	> 52.5 µM	> 52.5 µM	–	> 52.5 µM	–	> 52.5 µM	> 52.5 µM	> 52.5 µM	> 52.5 µM	–	> 52.5 µM	–	> 52.5 µM	> 52.5 µM	–
CC1=NN(c2nc(N)nc(CSCc3nc(N)nc(N(C)C)n3)n2)C(C)(C)C1	> 100 µM	> 100 µM	> 100 µM	> 100 µM	> 100 µM	> 100 µM	> 100 µM	> 100 µM	> 100 µM	> 100 µM	> 100 µM	> 100 µM	> 100 µM	> 100 µM	–
C#C[C@]1(O)CCC2C3CCc4cc(Oc5nc(F)nc(-c6c7cc8ccccc8cc7c7n6CCS7)n5)ccc4C3CCC21C (stereo not given in full)	> 100 µM	42.2 µM	> 100 µM	62.7 µM	> 100 µM	> 100 µM	> 100 µM	> 100 µM	> 100 µM	–	55.3 µM	> 100 µM	> 100 µM	96 µM	–
COc1ccc(NC(C)=O)cc1C1CCC(=O)N1 (stereo not given)	> 100 µM	> 100 µM	> 100 µM	> 100 µM	–	> 100 µM	> 100 µM	> 100 µM	> 100 µM	> 100 µM	> 100 µM	> 100 µM	> 100 µM	> 100 µM	–
CC/C=C/C(=O)CC(O)(C(F)(F)F)C(F)(F)F	> 100 µM	> 100 µM	> 100 µM	–	> 100 µM	> 100 µM	> 100 µM	> 100 µM	> 100 µM	> 100 µM	> 100 µM	> 100 µM	> 100 µM	> 100 µM	–
COC(=O)C12C3C4C5C3(C#N)C1C5(C(=O)OC)C42C(=O)N(C(C)C)C(C)C (stereo not given)	> 100 µM	> 100 µM	> 100 µM	> 53.4 µM	> 100 µM	> 100 µM	> 100 µM	> 100 µM	> 100 µM	–	> 100 µM	> 100 µM	> 100 µM	> 100 µM	–
CN(C(=O)Cc1ccc(Cl)c(Cl)c1)[C@@H]1CCCC[C@H]1[N+]1(C)CC=CC1	> 100 µM	> 100 µM	> 100 µM	> 100 µM	> 100 µM	> 100 µM	> 100 µM	> 100 µM	> 100 µM	–	> 100 µM	> 100 µM	> 100 µM	> 100 µM	> 100 µM
COc1ccc(/C=C2\CCCCCC2=O)cc1	> 100 µM	> 100 µM	> 100 µM	> 100 µM	> 100 µM	> 100 µM	> 100 µM	> 100 µM	> 100 µM	–	> 100 µM	> 100 µM	> 100 µM	> 100 µM	> 100 µM
